Source: ChEMBL document CHEMBL1201862, “PubChem BioAssay data set” (2004)
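Cultured in 96-well plates, cells were exposed to test compound for 48 hours across five concentrations. At the GI50, growth is halved.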 Calls of active or inactive are those of the source. Rule as the data show it: active = GI50 up to about 1.1 µM and inactive = higher.

What was measured:
Experiment in all cases: growth of human tumour cells (NCI), 48 h
786-0 = tested on: 786-0
ACHN = tested on: ACHN
BT-549 = tested on: BT-549
CAKI-1 = tested on: CAKI-1
HCT-15 = tested on: HCT-15
HOP-62 = tested on: HOP-62
HT-29 = tested on: HT-29
KM12 = tested on: KM12
M14 = tested on: M14
NCI-H226 = tested on: NCI-H226
NCI-H522 = tested on: NCI-H522
OVCAR-8 = tested on: OVCAR-8
SK-MEL-28 = tested on: SK-MEL-28
SK-MEL-5 = tested on: SK-MEL-5
T47D = tested on: T47D
UACC-257 = tested on: UACC-257
UO-31 = tested on: UO-31
COLO 205 = tested on: COLO 205
SK-MEL-2 = tested on: SK-MEL-2
SK-OV-3 = tested on: SK-OV-3

Structure (SMILES)	GI50 (786-0)	GI50 (ACHN)	GI50 (BT-549)	GI50 (CAKI-1)	GI50 (HCT-15) [µM]	GI50 (HOP-62)	GI50 (HT-29)	GI50 (KM12)	GI50 (M14)	GI50 (NCI-H226)	GI50 (NCI-H522)	GI50 (OVCAR-8)	GI50 (SK-MEL-28)	GI50 (SK-MEL-5)	GI50 (T47D)	GI50 (UACC-257)	GI50 (UO-31)	GI50 (COLO 205)	GI50 (SK-MEL-2)	GI50 (SK-OV-3)
Oc1cc(CF)nc(S)n1	> 100 µM (inactive)	> 100 µM (inactive)	> 100 µM (inactive)	> 100 µM (inactive)	> 100	> 100 µM (inactive)	> 100 µM (inactive)	> 100 µM (inactive)	> 100 µM (inactive)	> 100 µM (inactive)	> 100 µM (inactive)	> 100 µM (inactive)	> 100 µM (inactive)	> 100 µM (inactive)	> 100 µM (inactive)	> 100 µM (inactive)	> 100 µM (inactive)	–	–	–
CCCSc1ccc2[nH]c(/N=C/c3ccco3)cc2c1	40.2 µM (inactive)	49.5 µM (inactive)	31 µM (inactive)	34 µM (inactive)	24.3	6.64 µM (inactive)	14.3 µM (inactive)	49.4 µM (inactive)	44.6 µM (inactive)	–	22.2 µM (inactive)	31.5 µM (inactive)	41.8 µM (inactive)	13.7 µM (inactive)	38.1 µM (inactive)	33.6 µM (inactive)	41.9 µM (inactive)	22 µM (inactive)	23.7 µM (inactive)	30.5 µM (inactive)
COc1ccc(OC)c2sc(N3C(=O)/C(=C/c4ccccc4S)N=C3c3ccccc3)nc12	59.2 µM (inactive)	34.8 µM (inactive)	45.9 µM (inactive)	95.9 µM (inactive)	34.1	82.6 µM (inactive)	38.9 µM (inactive)	41 µM (inactive)	36.5 µM (inactive)	–	–	47.2 µM (inactive)	> 100 µM (inactive)	18.4 µM (inactive)	24.2 µM (inactive)	63 µM (inactive)	28.1 µM (inactive)	32.8 µM (inactive)	25.8 µM (inactive)	> 100 µM (inactive)
C=CCn1c(=O)c(C)cn(COCCO)c1=O	–	> 100 µM (inactive)	> 100 µM (inactive)	> 100 µM (inactive)	–	> 100 µM (inactive)	> 100 µM (inactive)	> 100 µM (inactive)	> 100 µM (inactive)	> 100 µM (inactive)	> 100 µM (inactive)	> 100 µM (inactive)	> 100 µM (inactive)	> 100 µM (inactive)	> 100 µM (inactive)	> 100 µM (inactive)	> 100 µM (inactive)	> 100 µM (inactive)	> 100 µM (inactive)	–
COc1nc2ccc(CNc3ccc(C(=O)O)cc3)cc2nc1OC	> 10 µM (inactive)	> 10 µM (inactive)	> 10 µM (inactive)	> 10 µM (inactive)	> 10	> 10 µM (inactive)	> 10 µM (inactive)	> 10 µM (inactive)	> 10 µM (inactive)	> 10 µM (inactive)	> 10 µM (inactive)	> 10 µM (inactive)	> 10 µM (inactive)	> 10 µM (inactive)	> 10 µM (inactive)	> 10 µM (inactive)	–	> 10 µM (inactive)	> 10 µM (inactive)	> 10 µM (inactive)
OCC1OC(NC(=S)NCCC(F)(F)C(F)(F)C(F)(F)C(F)(F)C(F)(F)C(F)(F)F)C(O)C(O)C1O (stereo not given)	> 100 µM (inactive)	88.1 µM (inactive)	> 100 µM (inactive)	> 100 µM (inactive)	> 100	71.4 µM (inactive)	> 100 µM (inactive)	> 100 µM (inactive)	56.4 µM (inactive)	–	–	–	72.9 µM (inactive)	35.6 µM (inactive)	> 100 µM (inactive)	54.7 µM (inactive)	> 100 µM (inactive)	> 100 µM (inactive)	> 100 µM (inactive)	> 100 µM (inactive)
Cc1ccc(O)c(-c2cc(-c3cccc(Br)c3)on2)c1	40.4 µM (inactive)	35.6 µM (inactive)	27.7 µM (inactive)	23.4 µM (inactive)	31.4	47.8 µM (inactive)	25.5 µM (inactive)	20.3 µM (inactive)	36.8 µM (inactive)	–	–	25.8 µM (inactive)	23.8 µM (inactive)	18.1 µM (inactive)	28.2 µM (inactive)	48.8 µM (inactive)	70.3 µM (inactive)	18.2 µM (inactive)	21.5 µM (inactive)	21.3 µM (inactive)
COc1cc(C2SCC(=O)N2c2ccccn2)cc(OC)c1OC (stereo not given)	> 100 µM (inactive)	> 100 µM (inactive)	98.6 µM (inactive)	> 100 µM (inactive)	55.5	–	> 100 µM (inactive)	62.1 µM (inactive)	> 100 µM (inactive)	> 100 µM (inactive)	57.7 µM (inactive)	> 100 µM (inactive)	> 100 µM (inactive)	55 µM (inactive)	–	49.8 µM (inactive)	> 100 µM (inactive)	> 100 µM (inactive)	> 100 µM (inactive)	> 100 µM (inactive)
CN(C)c1c(C2OC(CO)C(O)C2O)c(=O)c1=O (stereo not given)	> 100 µM (inactive)	> 100 µM (inactive)	> 100 µM (inactive)	> 100 µM (inactive)	> 100	> 100 µM (inactive)	> 100 µM (inactive)	> 100 µM (inactive)	> 100 µM (inactive)	> 100 µM (inactive)	> 100 µM (inactive)	> 100 µM (inactive)	> 100 µM (inactive)	–	> 100 µM (inactive)	> 100 µM (inactive)	> 100 µM (inactive)	–	> 100 µM (inactive)	> 100 µM (inactive)
CCOC(=O)C(NC(=O)Nc1ccccc1)(Nc1cccc(Cl)c1)C(F)(F)F (stereo not given)	> 100 µM (inactive)	> 100 µM (inactive)	> 100 µM (inactive)	–	> 100	> 100 µM (inactive)	> 100 µM (inactive)	> 100 µM (inactive)	> 100 µM (inactive)	> 100 µM (inactive)	92.9 µM (inactive)	> 100 µM (inactive)	> 100 µM (inactive)	> 100 µM (inactive)	> 100 µM (inactive)	> 100 µM (inactive)	> 100 µM (inactive)	> 100 µM (inactive)	> 100 µM (inactive)	> 100 µM (inactive)
Cc1ccc2[nH]c3[nH]c(=S)[nH]c(=O)c3c2c1	> 100 µM (inactive)	> 100 µM (inactive)	> 100 µM (inactive)	> 100 µM (inactive)	> 100	> 100 µM (inactive)	> 100 µM (inactive)	> 100 µM (inactive)	> 100 µM (inactive)	> 100 µM (inactive)	> 100 µM (inactive)	> 100 µM (inactive)	–	> 100 µM (inactive)	> 100 µM (inactive)	> 100 µM (inactive)	> 100 µM (inactive)	> 100 µM (inactive)	> 100 µM (inactive)	> 100 µM (inactive)
O=[N+]([O-])c1cc(Cl)cc2cc(Cl)cnc12	> 100 µM (inactive)	> 100 µM (inactive)	> 100 µM (inactive)	> 100 µM (inactive)	> 100	> 100 µM (inactive)	> 100 µM (inactive)	–	> 100 µM (inactive)	> 100 µM (inactive)	> 100 µM (inactive)	98.9 µM (inactive)	> 100 µM (inactive)	62.5 µM (inactive)	16.4 µM (inactive)	61.4 µM (inactive)	> 100 µM (inactive)	> 100 µM (inactive)	–	–
CC1=NN(C(=O)CC(=O)Nc2ccccc2C)C(=O)C1/N=N/c1ccc(C(=O)O)cc1 (stereo not given)	> 100 µM (inactive)	> 100 µM (inactive)	> 100 µM (inactive)	> 100 µM (inactive)	> 100	> 100 µM (inactive)	> 100 µM (inactive)	> 100 µM (inactive)	> 100 µM (inactive)	–	> 100 µM (inactive)	> 100 µM (inactive)	> 100 µM (inactive)	> 100 µM (inactive)	44.1 µM (inactive)	> 100 µM (inactive)	48.6 µM (inactive)	> 100 µM (inactive)	> 100 µM (inactive)	–
CC(NC(=O)C(Cc1ccc(OC(=O)c2ccccc2)cc1)NC(=O)OC(C)(C)C)C(=O)NCC(=O)NC(Cc1ccccc1)C(=O)NN (stereo not given)	> 100 µM (inactive)	> 100 µM (inactive)	55.5 µM (inactive)	89.1 µM (inactive)	> 100	83 µM (inactive)	31 µM (inactive)	80.7 µM (inactive)	35.1 µM (inactive)	> 100 µM (inactive)	29.6 µM (inactive)	65 µM (inactive)	35.7 µM (inactive)	34.7 µM (inactive)	62.8 µM (inactive)	–	> 100 µM (inactive)	23.8 µM (inactive)	–	> 100 µM (inactive)
COc1ccc(-c2nc(N)c3ncn(C4OC(CO)C(O)C4O)c3n2)cc1 (stereo not given)	> 100 µM (inactive)	> 100 µM (inactive)	> 100 µM (inactive)	> 100 µM (inactive)	> 100	> 100 µM (inactive)	> 100 µM (inactive)	> 100 µM (inactive)	> 100 µM (inactive)	> 100 µM (inactive)	62.8 µM (inactive)	> 100 µM (inactive)	> 100 µM (inactive)	> 100 µM (inactive)	> 100 µM (inactive)	> 100 µM (inactive)	–	> 100 µM (inactive)	> 100 µM (inactive)	> 100 µM (inactive)
COc1ccc(/C=C2/C(=O)N(C(=O)c3ccccc3O)N=C2C)cc1OC	1.26 µM (inactive)	0.162 µM (active)	0.388 µM (active)	2.46 µM (inactive)	0.64	1.99 µM (inactive)	16.8 µM (inactive)	0.516 µM (active)	0.927 µM (active)	0.637 µM (active)	1.71 µM (inactive)	0.568 µM (active)	23.9 µM (inactive)	0.982 µM (active)	–	1.42 µM (inactive)	0.202 µM (active)	26.7 µM (inactive)	0.605 µM (active)	1.21 µM (inactive)
